Measurements: publication PMC8271538, “Chemical Modulation of the 1-(Piperidin-4-yl)-1,3-dihydro-2H-benzo[d]imidazole-2-one Scaffold as a Novel NLRP3 Inhibitor” (Molecules, 2021)
Where two headings read alike, the source gives them in different places. Marks after values point to notes of the source that are not given here.

Columns and labels:
[1] = system: NLRP3-dependent pyroptosis in differentiated THP-1 cells; experiment: NLRP3-dependent pyroptosis (LDH release) in PMA-differentiated, LPS-primed, ATP-triggered THP-1 cells; assay type: cell-based, human; settings: for inhibition at 10 µM: THP-1, 1.5 h, read-out: Pyroptosis Decrease, % inhibition at 10 µM; for inhibition at 1 µM: THP-1, 1 µM test compound (Figure 3)
[2] = system: THP-1 cells
[3] = system: IL-1β release in differentiated THP-1 cells; experiment: IL-1β release (ELISA) in supernatants of LPS/ATP-treated differentiated THP-1 cells; assay type: cell-based, human; settings: same experiments as pyroptosis, vs vehicle-treated cells, mean ± SEM; for inhibition at 10 µM: Homo sapiens, THP-1, 10 µM test compound; for IL-1β Inhibition, % inhibition at 10 µM: 10 µM test compound
Method: Different techniques could be used to study NLRP3 inhibitors; the use of differentiated THP-1 cells treated with NLRP3 activating stimuli is suitable for the screening of large series of compounds [48]. All the synthesised compounds (Figure 2) were evaluated for their NLRP3 inhibitory activity by measuring their ability to prevent NLRP3-dependent pyroptosis in differentiated THP-1 cells. THP-1 cells were differentiated into macrophages by treatment with phorbol-myristate acetate (PMA; 50 nM; 24 h) and then treated with lipopolysaccharide (LPS; 10 µg/mL; 4 h) to promote NLRP3 expression. The cells were then incubated with test compounds at the fixed concentration of 10 µM for 1 h. Test compounds were dissolved in serum free medium containing 0.1% DMSO as the vehicle. NLRP3 was activated by the addition of ATP (5 mM), and the pyroptotic cell death was evaluated after 1.5 h by measuring the lactate dehydrogenase (LDH) released in the cell supernatants. The obtained results, expressed as pyroptosis% decrease with respect to vehicle-treated cells, are collected in Table 1. In the same experiments, the release of IL-1β was measured via an ELISA assay and the results, expressed as % inhibition of IL-1β release versus vehicle-treated cells, are reported in Table 1. Finally, the cytotoxicity of the synthesised compounds was evaluated by MTT assay after treatment of THP-1 cells with increasing concentration of test compounds (0.1–100 µM) for 72 h. […] The structural modulation of compound 2 was then carried out in order to understand whether it was possible to restore/increase the activity without the re-introduction of a Michael acceptor substructure.
Human myelomonocytic THP-1 cells were cultured in RPMI 1640 medium (Aurogene, Rome, Italy) supplemented with fetal bovine serum (10%; Aurogene), L-glutamine (2 mM; Aurogene), penicillin (100 IU/mL; Aurogene) and streptomycin ([…]; Aurogene). Cell culture medium was replaced every 2−3 days, and the cultures were maintained at 37 °C and 5% CO2 in a fully humidified incubator. The day before each experiment, cells were plated in 48-well culture plates (90.000 cells/well) and were differentiated by treatment with PMA (50 nM, 24 h; Sigma-Aldrich). PMA-differentiated THP-1 cells were washed twice with phosphate-buffered saline (PBS) and primed with LPS (10 μg/mL, 4 h; Sigma-Aldrich) in serum-free medium. Cells were then incubated with compounds dissolved in medium containing 0.1% DMSO for 1 h and cell death was triggered with ATP (5 mM, 90 min; Sigma-Aldrich). MCC950 (Sigma-Aldrich batch #45216 and batch #85021 and from Crysdot (product n. CD31002496; OS05876-18070932) was used in the experiments.
IL-1β release was quantified in differentiated THP-1 supernatant, obtained as previously described, using Human IL-1 beta Uncoated ELISA kit (Invitrogen, Waltham, MA, USA), according to the manufacture’s instruction.

[4] = target: T1, human recombinant NLRP3 (Homo sapiens, UniProt Q96P20); experiment: In vitro NLRP3 ATPase activity, on-bead ADP-Glo assay with immobilised NLRP3-GFP; assay type: biochemical; settings: for Inhibition of NLRP3 ATPase activity (% reduction in ATP hydrolysis relative to vehicle control) / inhibition at 100 µM: 100 μM compound, ATP 800 μM, mean ± SEM, n = 4; for NLRP3 ATPase inhibition at 1 mM compared with 100 µM: 1 mM vs 100 µM compound, data not shown; for inhibition at 100 µM: read-out: Inhibition of NLRP3 ATPase activity (% reduction in ATP hydrolysis relative to vehicle control)
T1 construct: made in house; host or cells: HEK293T cells (transient transfection, captured from lysate on GFP-Trap Sepharose)

[5] = Homo sapiens, 10 µM test compound, 1 h before ATP (5 mM, 90 min), vs vehicle-treated cells, mean ± SEM, NA = not active at 10 µM
[6] = 72 h treatment, 0.1–100 µM, MTT, TC50 ± SEM of three experiments
[7] = 10 µM test compound, 1 h before ATP (5 mM, 90 min), vs vehicle-treated cells, mean ± SEM, NA = not active at 10 µM

T1 sequence (Q96P20 whole entry): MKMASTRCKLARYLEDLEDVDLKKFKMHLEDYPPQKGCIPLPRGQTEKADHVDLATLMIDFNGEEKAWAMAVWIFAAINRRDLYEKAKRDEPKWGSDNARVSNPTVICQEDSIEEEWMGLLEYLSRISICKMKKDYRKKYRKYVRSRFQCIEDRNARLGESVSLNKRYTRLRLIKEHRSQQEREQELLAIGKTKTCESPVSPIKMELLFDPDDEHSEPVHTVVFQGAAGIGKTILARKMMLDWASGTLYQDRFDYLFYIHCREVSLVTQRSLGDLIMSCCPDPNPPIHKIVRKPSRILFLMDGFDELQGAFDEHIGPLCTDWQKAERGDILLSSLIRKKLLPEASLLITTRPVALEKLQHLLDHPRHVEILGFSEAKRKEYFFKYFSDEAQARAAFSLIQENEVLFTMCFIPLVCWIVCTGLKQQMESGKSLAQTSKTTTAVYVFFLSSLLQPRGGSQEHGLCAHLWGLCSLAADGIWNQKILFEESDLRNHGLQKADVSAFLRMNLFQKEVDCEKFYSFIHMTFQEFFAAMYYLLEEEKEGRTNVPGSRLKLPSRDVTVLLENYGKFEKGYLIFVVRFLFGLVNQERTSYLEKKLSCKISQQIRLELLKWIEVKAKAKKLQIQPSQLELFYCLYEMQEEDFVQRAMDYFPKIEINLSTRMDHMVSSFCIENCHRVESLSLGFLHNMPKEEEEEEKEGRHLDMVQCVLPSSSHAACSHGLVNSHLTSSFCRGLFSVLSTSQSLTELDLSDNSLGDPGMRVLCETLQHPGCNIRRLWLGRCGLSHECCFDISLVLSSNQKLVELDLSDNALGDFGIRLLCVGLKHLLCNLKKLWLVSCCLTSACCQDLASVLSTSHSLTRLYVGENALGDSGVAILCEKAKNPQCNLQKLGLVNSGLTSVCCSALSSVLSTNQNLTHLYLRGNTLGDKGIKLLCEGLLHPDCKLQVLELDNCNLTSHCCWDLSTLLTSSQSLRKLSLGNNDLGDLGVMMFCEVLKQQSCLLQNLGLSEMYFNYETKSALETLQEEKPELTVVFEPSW

Compound	inhibition at 10 µM [1, 5]	Cytotoxicity TC50 [2, 6]	inhibition at 10 µM [3]	Pyroptosis Decrease, % inhibition at 10 µM [1, 7]	Inhibition of NLRP3 ATPase activity (% reduction in ATP hydrolysis relative to vehicle control) [4]	also measured
O=C(O)Cn1c(=O)n(CCc2ccccc2Cl)c2ccccc21 [Compound 23, 2-(3-(2-chlorophenethyl)-2-oxo-2,3-dihydro-1H-benzo[d]imidazol-1-yl)acetic acid]	26.3 ± 3.5%	62.4 ± 1.2 µM	13.9 ± 16.4%			
O=C(CCc1ccccc1Cl)NCCC(=O)N1CCC(n2c(=O)[nH]c3ccccc32)CC1 [Compound 7, 3-(2-chlorophenyl)-N-{3-oxo-3-[4-(2-oxo-2,3-dihydro-1,3-benzodiazol-1-yl)piperidin-1-yl]propyl}propanamide]	~35%	62.4 ± 13.3 µM	18 to 21%			IL-1β Inhibition, % inhibition at 10 µM ([3]; 10 µM): 17.8 ± 7.5%
2-(3-(3-(2-chlorophenyl)propanoyl)-2-oxo-2,3-dihydro-1H-benzo[d]- imidazol-1-yl)propionic acid [Compound 21]				the activity was suppressed	reduced the inhibitory potential	Cytotoxicity TC50 [2]: 80.1 ± 1.4 µM
Ethyl 2-(3-(3-(2-chlorophenyl)propanoyl)-2-oxo-2,3-dihydro-1H-benzo[d] imidazol-1-yl)propanoate [Compound 20]				24.4 ± 6.8%		Cytotoxicity TC50 [2]: 57.6 ± 3.2 µM; IL-1β Inhibition, % inhibition at 10 µM [3]: 13.8 ± 5.4%
N#CN=c1[nH]c2ccccc2n1C1CCN(C(=O)CCc2ccccc2Cl)CC1 [Compound 15, N-(1-(1-(3-(2-chlorophenyl)propanoyl)piperidin-4-yl)-1,3-dihydro-2H-benzo[d]imidazol-2-ylidene)cyanamide]		83.4 ± 0.8 µM		inactive	significant inhibition of ATPase activity	
3-(2-chlorophenyl)-N-(2-oxo-2-(4-(2-oxo-2,3-dihydro-1H-benzo[d]imidazol-1-yl)piperidin-1-yl)ethyl)propenamide [Compound 6]				about 35%	22.5 ± 1.4%	Pyroptosis Decrease, % inhibition at 10 µM ([1]; 10 µM test compound, 1 h before ATP (5 mM, 90 min), vs vehicle-treated cells, mean ± SEM, NA = not active at 10 µM, listed as 6 (INF148)): 35.0 ± 6.9 ^d %; Cytotoxicity TC50 [2]: 61.7 ± 1.0 µM; IL-1β Inhibition, % inhibition at 10 µM ([3]; 10 µM): 18–21%; IL-1β Inhibition, % inhibition at 10 µM ([3]; listed as 6 (INF148), 10 µM): 21.0 ± 3.2 ^d %; NLRP3 ATPase inhibition at 1 mM compared with 100 µM [4]: no significant differences
CCOC(=O)Cn1c(=O)n(CCc2ccccc2Cl)c2ccccc21 [Compound 22, Ethyl 2-(3-(2-chlorophenethyl)-2-oxo-2,3-dihydro-1H-benzo[d]imidazol-1-yl) acetate]		92.8 ± 2.1 µM				
CC(C)(O)c1coc(S(=O)(=O)NC(=O)Nc2c3c(cc4c2CCC4)CCC3)c1 [MCC950, reference compound]		>100 µM	37.6 ± 6%			
N#CN=C(NCc1ccccc1)NC1CCN(C(=O)CCc2ccccc2Cl)CC1 [Compound 13, 1-benzyl-3-(1-(3-(2-chlorophenyl)propanoyl)piperidin-4-yl)-2-cyanoguanidine]	45 ± 8.8%	85.7 ± 5.6 µM	25.2 ± 4.9%	able to inhibit	significant inhibition of ATPase activity	inhibition at 1 µM ([1]; Homo sapiens): 20 to 30%; IL-1β Inhibition, % inhibition at 10 µM ([3]; 10 µM): able to inhibit; inhibition at 100 µM [4]: 26.5 ± 3.1%; NLRP3 ATPase inhibition at 1 mM compared with 100 µM [4]: no significant differences
O=C(CCc1ccccc1Cl)n1c(=O)[nH]c2ccccc21 [Compound 16, 1-(3-(2-chlorophenyl)propanoyl)-1,3-dihydro-2H-benzo[d]imidazol-2-one]	37.7 ± 7.6%	77.3 ± 3.7 µM	14.9 ± 8.8%			
3-(2-chlorophenyl)-N-(4-oxo-4-(4-(2-oxo-2,3-dihydro-1H-benzo[d]imidazol-1-yl)piperidin-1-yl)butyl)propenamide [Compound 8]				32.2 ± 10.6 ^d %		Cytotoxicity TC50 [2]: 86.3 ± 5.1 µM
O=C(CCc1ccccc1Cl)N1CCC(n2c(=O)[nH]c3ccccc32)CC1 [Compound 2, 1-(1-(3-(2-chlorophenyl)propanoyl)piperidin-4-yl)-1,3-dihydro-2H-benzo[d]imidazol-2-one]	14.9 ± 5.8%	64.1 ± 4.7 µM	10.3 ± 5.8%			inhibition at 50 µM ([1]; Homo sapiens, THP-1, 50 µM test compound): 29.1 ± 4.8%; inhibition at 100 µM [4]: 28.6 ± 5.5%
CNC(=NC#N)NC1CCN(C(=O)CCc2ccccc2Cl)CC1 [Compound 12, 1-(1-(3-(2-chlorophenyl)propanoyl)piperidin-4-yl)-2-cyano-3-methylguanidine]	15.7 ± 9.1%	>100 µM	19 ± 0.4%			
1-(1-(2-(2-chlorophenyl)acetyl)piperidin-4-yl)-1,3-dihydro-2H-benzo[d]imidazol-2-one [Compound 4]					reduce	Pyroptosis Decrease, % inhibition at 10 µM [1]: inactive; Cytotoxicity TC50 [2]: 80.9 ± 3.2 µM
O=C(CCc1ccccc1Cl)NCCCn1c(=O)[nH]c2ccccc21 [Compound 10, 3-(2-chlorophenyl)-N-(3-(2-oxo-2,3-dihydro-1H-benzo[d]imidazol-1-yl)propyl) propanamide]		>100 µM		inactive	no effect on ATPase inhibition was detected	
O=C(CCc1ccccc1Cl)N1CCC(n2cnc3ccccc32)CC1 [Compound 14, 1-(4-(1H-benzo[d]imidazol-1-yl)piperidin-1-yl)-3-(2-chlorophenyl)propan-1-one]		92.6 ± 4.0 µM		inactive		
O=C(CCc1ccccc1Cl)n1c(=O)n(Cc2nn[nH]n2)c2ccccc21 [Compound 19, 1-((2H-tetrazol-5-yl)methyl)-3-(3-(2-chlorophenyl)propanoyl)-1,3-dihydro-2H-benzo[d]imidazol-2-one]	26.2 ± 1.6%	>100 µM	< 10%		reduced the inhibitory potential	
O=C(O)Cn1c(=O)n(C(=O)CCc2ccccc2Cl)c2ccccc21 [Compound 18, 2-(3-(3-(2-chlorophenyl)propanoyl)-2-oxo-2,3-dihydro-1H-benzo[d]-imidazol-1-yl)acetic acid]	36.4 ± 11.1%	>100 µM	21.1 ± 3.1%	active	able to reduce ATPase activity	inhibition at 1 µM ([1]; Homo sapiens): 20 to 30%; inhibition at 100 µM [4]: 27.2 ± 6.3%; NLRP3 ATPase inhibition at 1 mM compared with 100 µM [4]: no significant differences
3-(2-chlorophenyl)-N-methyl-N-(3-(2-oxo-2,3-dihydro-1H-benzo[d]imidazole-1-yl)propyl)propenamide [Compound 11]						Pyroptosis Decrease, % inhibition at 10 µM [1]: inactive
